Laboratory results from patent US20240238425A1, “HSD17B13 Inhibitors and/or Degraders” (Pfizer Inc., priority 2022, published 2024).
Counter-ions that a name gives are not always drawn.

System: HiBiT-HSD17β13 fusion protein (N-terminal HiBiT-tagged HSD17β13 isoform D) in Huh7 HiBiT-HSD17β13 OE cells
Assay: Whole-cell Huh7-HSD17B13 HiBiT assay (degrader potency and maximal efficacy, luminescence readout)
Format: cell-based, human
Settings: 24 hour incubation, geometric mean, * = geometric mean for all forms tested (parent and salt forms); for DC50: read-out: Huh7_HIBIT-HSD17β13_DC50 GMean DC50; for Huh7_HIBIT-HSD17β13_DC50 GMean Asymptote Maximum: max. concentration 1 μM
Description: Degrader potency and maximal efficacy of test compounds were determined using a whole-cell Huh7-HSD17B13 HiBiT assay, utilizing a luminescence readout. A HiBiT tag was fused to the N-terminus of HSD17β13, and therefore the HiBiT luminescence signal produced in the assay was proportional to the level of HiBiT-HSD17β13 fusion protein in a sample.
A Huh7 HiBiT-HSD17β13 OE cell line was generated using electroporation with an N-terminal HiBiT-tagged HSD17β13 isoform D overexpression plasmid, followed by geneticin selection to produce a stable pool. Clones were created with varying HiBiT signals to optimize HiBiT HSD17 β13 ratios. A clone with similar HSD17β13 expression levels as human primary hepatocytes was selected for the compound screen.
Greiner 384-well white opaque, flat bottom, tissue culture treated plates (Greiner #781080) were used for both HiBiT and CTG assays. The treated plates were spotted with 25 nL of a compound which had been serial diluted 1 in 3.162 in 100% DMSO for an 11-point concentration response curve, with duplicate points at each concentration. The maximum concentration of the compounds was 1 mM, which was later diluted with cell suspension for a maximum concentration of 1 μM). High percentage effect (HPE) wells and zero percentage effect (ZPE) wells located in columns 1 and 24 were spotted with 25 nL of DMSO (Sigma #D2650) using an ECHO Acoustic Liquid Handler (Labcyte Echo 550 Series). Each plate was performed in duplicate.
The Huh7 HiBiT-HSD17β13 OE cells were plated on top of a compound or a DMSO control at 3,000 viable cells/well in 25 μL growth media (DMEM (Gibco #10569), 10% FBS HI (Gibco #16140), 1× Pen/Strep (Gibco #15070), 1×MEM Non-Essential Amino Acids (Gibco #11140), and 300 μg/mL Geneticin (Gibco #10131) in columns 2-24 of the plates. Huh7 parental cells were plated using the same parameters in column 1 (HPE) in the same culture medium, excluding Geneticin selection. Cells were incubated overnight with the compounds for 24 hours (with lid) at 37° C. ([…]).
Each assay was conducted after a 24 hour incubation period. In the HiBiT assay plates, 25 μL of complete Nano-Glo HiBiT Lytic detection system (Promega #PRN3040), consisting of HiBiT Lytic Buffer with the addition of 1:100 LgBiT Protein and 1:50 Substrate, was added to each well. In CTG counter screen plates, 25 μL of Cell Titer-Glo Luminescent Reagent (Promega #G7573) was added to each well. Both plates were centrifuged for 2 minutes at 1000 rpm and incubated at room temperature, in the dark, for 10 minutes. Then Luminescence was read using an EnVision Plate Reader (Perkin Elmer PE2103).
The raw data from the Envision Plate Reader was expressed as relative luminescence units (RLUs) for each well of the assay plates. Using HPE and ZPE controls, the % effect was calculated for each sample well as follows: Percent effect=[(sample RLU−HPE RLU)\(ZPE RLU−HPE RLU)]*100. The percent effect was plotted versus the compound concentration and a 50% degradation ([…]) was determined using a four-parameter logistic dose response equation. The raw data was analyzed using ABase (IDBS).

DC50 [nM] | Structure (SMILES) | Huh7_HIBIT-HSD17β13_DC50 GMean Asymptote Maximum
0.42 | Cn1c(=O)n(C2CCC(=O)NC2=O)c2ccc(CCCN3CCN(c4ccc5nn(C6CCC(CNC(=O)c7cc(F)c(O)c(F)c7F)CC6)cc5n4)CC3)cc21.O=CO (racemic) [Example 16, N-{[(1r,4r)-4-{5-[4-(3-{1-[(3RS)-2,6-Dioxopiperidin-3-yl]-3-methyl-2-oxo-2,3-dihydro-1H-benzimidazol-5-yl}propyl)piperazin-1-yl]-2H-pyrazolo[4,3-b]pyridin-2-yl}cyclohexyl]methyl}-2,3,5-trifluoro-4-hydroxybenzamide, formate salt] | 82%
0.58 | Cn1c(=O)n(C2CCC(=O)NC2=O)c2ccc(CCCN3CCN(c4nccc(-c5ncc(C67CCC(CNC(=O)c8cc(F)c(O)c(F)c8F)(CC6)CC7)o5)n4)CC3)cc21 (racemic) [Example 18, N-{[4-(2-{2-[4-(3-{1-[(3RS)-2,6-Dioxopiperidin-3-yl]-3-methyl-2-oxo-2,3-dihydro-1H-benzimidazol-5-yl}propyl)piperazin-1-yl]pyrimidin-4-yl}-1,3-oxazol-5-yl)bicyclo[2.2.2]octan-1-yl]methyl}-2,3,5-trifluoro-4-hydroxybenzamide] | 82%
0.38 | Cn1c(=O)n(C2CCC(=O)NC2=O)c2ccc(CCCN3CCc4nc(-c5ccc6cn([C@H]7CC[C@H](CNC(=O)c8cc(F)c(O)c(F)c8F)CC7)nc6c5)ccc4C3)cc21 (mixture of isomers) [Example 21, N-{[(1r,4r)-4-{6-[6-(3-{1-[(3RS)-2,6-Dioxopiperidin-3-yl]-3-methyl-2-oxo-2,3-dihydro-1H-benzimidazol-5-yl}propyl)-5,6,7,8-tetrahydro-1,6-naphthyridin-2-yl]-2H-indazol-2-yl}cyclohexyl]methyl}-2,3,5-trifluoro-4-hydroxybenzamide] | 74%
1.6 | Cn1c(=O)n(C2CCC(=O)NC2=O)c2ccc(CCCN3C[C@H]4CCN(c5ccc6cn(C7CCC(CNC(=O)c8cc(F)c(O)c(F)c8F)CC7)nc6c5)C[C@H]4C3)cc21.O=CO (mixture of isomers) [Example 22, N-{[(1r,4r)-4-{6-[(3aR,7aS)-2-(3-{1-[(3RS)-2,6-Dioxopiperidin-3-yl]-3-methyl-2-oxo-2,3-dihydro-1H-benzimidazol-5-yl}propyl)octahydro-5H-pyrrolo[3,4-c]pyridin-5-yl]-2H-indazol-2-yl}cyclohexyl]methyl}-2,3,5-trifluoro-4-hydroxybenzamide, formate salt] | 77%
0.18 | Cl.Cn1c(=O)n(C2CCC(=O)NC2=O)c2ccc(CCCN3CCN(c4ncc(-c5ccc6cn([C@H]7CC[C@H](CNC(=O)c8cc(F)c(O)c(F)c8F)CC7)nc6c5)cn4)CC3)cc21 (mixture of isomers) [Example 24, N-{[(1r,4r)-4-(6-{2-[4-(3-{1-[(3RS)-2,6-dioxopiperidin-3-yl]-3-methyl-2-oxo-2,3-dihydro-1H-benzimidazol-5-yl}propyl)piperazin-1-yl]pyrimidin-5-yl}-2H-indazol-2-yl)cyclohexyl]methyl}-2,3,5-trifluoro-4-hydroxybenzamide, hydrochloride salt] | 88* %
0.85 | Cl.Cn1c(=O)n(C2CCC(=O)NC2=O)c2cccc(CN3CCN(c4ncc(-c5ccc6cn([C@H]7CC[C@H](CNC(=O)c8cc(F)c(O)c(F)c8F)CC7)nc6c5)cn4)CC3)c21 (mixture of isomers) [Example 25, N-{[(1r,4r)-4-(6-{2-[4-({1-[(3RS)-2,6-dioxopiperidin-3-yl]-3-methyl-2-oxo-2,3-dihydro-1H-benzimidazol-4-yl}methyl)piperazin-1-yl]pyrimidin-5-yl}-2H-indazol-2-yl)cyclohexyl]methyl}-2,3,5-trifluoro-4-hydroxybenzamide, hydrochloride salt] | 84%
0.5 | Cl.Cn1c(=O)n(C2CCC(=O)NC2=O)c2ccc(CN3CCN(c4ncc(-c5ccc6cn([C@H]7CC[C@H](CNC(=O)c8cc(F)c(O)c(F)c8F)CC7)nc6c5)cn4)CC3)cc21 (mixture of isomers) [Example 26, N-{[(1r,4r)-4-(6-{2-[4-({1-[(3RS)-2,6-dioxopiperidin-3-yl]-3-methyl-2-oxo-2,3-dihydro-1H-benzimidazol-5-yl}methyl)piperazin-1-yl]pyrimidin-5-yl}-2H-indazol-2-yl)cyclohexyl]methyl}-2,3,5-trifluoro-4-hydroxybenzamide, hydrochloride salt] | 82%
0.82 | Cl.Cn1c(=O)n(C2CCC(=O)NC2=O)c2ccc(CCCN3CCN(c4ccc5cn([C@H]6CC[C@H](CNC(=O)c7cc(F)c(O)c(F)c7F)CC6)nc5c4)CC3)cc21 (mixture of isomers) [Example 27, N-{[(1r,4r)-4-{6-[4-(3-{1-[(3RS)-2,6-dioxopiperidin-3-yl]-3-methyl-2-oxo-2,3-dihydro-1H-benzimidazol-5-yl}propyl)piperazin-1-yl]-2H-indazol-2-yl}cyclohexyl]methyl}-2,3,5-trifluoro-4-hydroxybenzamide, hydrochloride salt] | 86%
0.99 | Cn1c(=O)n(C2CCC(=O)NC2=O)c2ccc(CCCN3CCn4c(-c5ccc6cn([C@H]7CC[C@H](CNC(=O)c8cc(F)c(O)c(F)c8F)CC7)nc6c5)cnc4C3)cc21 (mixture of isomers) [Example 31, N-{[(1r,4r)-4-{6-[7-(3-{1-[(3RS)-2,6-dioxopiperidin-3-yl]-3-methyl-2-oxo-2,3-dihydro-1H-benzimidazol-5-yl}propyl)-5,6,7,8-tetrahydroimidazo[1,2-a]pyrazin-3-yl]-2H-indazol-2-yl}cyclohexyl]methyl}-2,3,5-trifluoro-4-hydroxybenzamide, trifluoroacetate salt] | 85%
0.3 | Cn1c(=O)n(C2CCC(=O)NC2=O)c2ccc(CCCN3CCc4ccc(-c5ccc6cn([C@H]7CC[C@H](CNC(=O)c8cc(F)c(O)c(F)c8F)CC7)nc6c5)cc4C3)cc21 (mixture of isomers) [Example 32, N-{[(1r,4r)-4-{6-[2-(3-{1-[(3RS)-2,6-dioxopiperidin-3-yl]-3-methyl-2-oxo-2,3-dihydro-1H-benzimidazol-5-yl}propyl)-1,2,3,4-tetrahydroisoquinolin-7-yl]-2H-indazol-2-yl}cyclohexyl]methyl}-2,3,5-trifluoro-4-hydroxybenzamide, trifluoroacetate salt] | 83%

Structure (SMILES) | DC50 [nM] | Huh7_HIBIT-HSD17β13_DC50 GMean Asymptote Maximum
Cn1c(=O)n(C2CCC(=O)NC2=O)c2ccc(CCCN3CCN(c4nccc(-c5nc(C6CCC(CNC(=O)c7cc(F)c(O)c(F)c7F)CC6)no5)n4)CC3)cc21.O=C(O)C(F)(F)F (racemic) [Example 17, N-{[(1r,4r)-4-(5-{2-[4-(3-{1-[(3RS)-2,6-Dioxopiperidin-3-yl]-3-methyl-2-oxo-2,3-dihydro-1H-benzimidazol-5-yl}propyl)piperazin-1-yl]pyrimidin-4-yl}-1,2,4-oxadiazol-3-yl)cyclohexyl]methyl}-2,3,5-trifluoro-4-hydroxybenzamide, trifluoroacetate salt] | 0.47 | 85%
